According to patent publication US9561231B2 (AbbVie Inc., priority 2012, dated 2017):
pEC50, pKi: −log10 of the molar value.

Key:
[1] = molecular target: T1, first (BD1: amino acids K57-E168) bromodomain of BRD4 (Homo sapiens, UniProt O60885); assay: TR-FRET bromodomain binding assay, BRD4 BD1; conditions: TR-FRET assay protocol (A-G, compound concentration range); Ki calculated from IC50, probe Kd and probe concentration; read-out: TR-FRET Binding Ki: BRD4 (BDI_K57-E168)
T1 construct: His-tagged first (BD1: amino acids K57-E168)
How it was run: (§1)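 His-tagged BRD4 BD1 (K57-E168) or BD2 ([…]) displacing an Alexa647-labelled BET-inhibitor probe in 20 mM sodium phosphate pH 6.0, 50 mM NaCl, 1 mM EDTA, 0.01% Triton X-100, 1 mM DTT.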

[2] = molecular target: T2, second (BD2: amino acids E352-E168) bromodomain of BRD4 (Homo sapiens, UniProt O60885); assay: TR-FRET bromodomain binding assay, BRD4 BD2; conditions: TR-FRET assay protocol (A-G, compound concentration range); Ki calculated from IC50, probe Kd and probe concentration; read-out: TR-FRET Binding Ki: BRD4 (BDII_E352-M457)
T2 construct: protocol
How it was run: as §1

[3] = test system: breast cancer cell line MX-1; assay: MX-1 cell line proliferation assay (3-day); format: cell-based; conditions: Homo sapiens, MX1; MX-1 cells, 72 h incubation, Cell Titer Glo; read-out: Cellular proliferation: EC50
How it was run: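 MX-1 cells in RPMI/10% FBS, plated 5000/well overnight, then exposed to compound at final 3 to 0.0001 μM (3-fold series) for 3 days at 37° C. Cell Titer Glo luminescence normalized to DMSO-treated cells; EC50 from sigmoidal curve fit.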

| SMILES | pKi [1] | pKi [2] | pEC50 [3] |
| --- | --- | --- | --- |
| Cn1cc(-c2cc(NS(C)(=O)=O)ccc2OC2CCCC2)ccc1=O [Example 248, N-[4-(cyclopentyloxy)-3-(1-methyl-6-oxo-1,6-dihydropyridin-3-yl)phenyl]methanesulfonamide] | 6.81 | 5.34 | 6.31 |
| Cn1cc(-c2cc(NS(C)(=O)=O)ccc2OC2CCOC2)ccc1=O (stereo not drawn) [Example 249, N-[3-(1-methyl-6-oxo-1,6-dihydropyridin-3-yl)-4-(tetrahydrofuran-3-yloxy)phenyl]methanesulfonamide] | 7.06 | 6.15 | < 5.52 |
| Cn1cc(-c2cc(NS(C)(=O)=O)ccc2OCC2CCOCC2)ccc1=O [Example 250, N-[3-(1-methyl-6-oxo-1,6-dihydropyridin-3-yl)-4-(tetrahydro-2H-pyran-4-ylmethoxy)phenyl]methanesulfonamide] | 6.84 | 4.90 | < 5.52 |
| Cn1cc(-c2cc(NC(=O)c3ccc[nH]3)ccc2Oc2ccccc2)ccc1=O [Example 251, N-[3-(1-methyl-6-oxo-1,6-dihydropyridin-3-yl)-4-phenoxyphenyl]-1H-pyrrole-2-carboxamide] | 6.71 | 6.59 | 5.96 |
| Cn1cc(-c2cc(NC(=O)CNC(=O)OC(C)(C)C)ccc2Oc2ccccc2)ccc1=O [Example 252, tert-butyl (2-{[3-(1-methyl-6-oxo-1,6-dihydropyridin-3-yl)-4-phenoxyphenyl]amino}-2-oxoethyl)carbamate] | 6.53 | 6.16 | < 5.52 |
| Cn1cc(-c2cc(NC(=O)CN)ccc2Oc2ccccc2)ccc1=O [Example 253, N-[3-(1-methyl-6-oxo-1,6-dihydropyridin-3-yl)-4-phenoxyphenyl]glycinamide] | 6.03 | 5.48 | < 5.52 |
| CCNS(=O)(=O)c1ccc(Oc2ccccc2)c(-c2ccc(=O)n(C)c2)c1 [Example 255, N-ethyl-3-(1-methyl-6-oxo-1,6-dihydropyridin-3-yl)-4-phenoxybenzenesulfonamide] | 6.20 | 6.85 | < 5.52 |
| Cn1cc(-c2cc(S(N)(=O)=O)ccc2Oc2ccccc2)ccc1=O [Example 256, 3-(1-methyl-6-oxo-1,6-dihydropyridin-3-yl)-4-phenoxybenzenesulfonamide] | 6.66 | 7.03 | 5.97 |
| COc1cc(=O)n(C)cc1-c1ccccc1Oc1ccccc1 [Example 258, 4-methoxy-1-methyl-5-(2-phenoxyphenyl)pyridin-2(1H)-one] | 6.14 | 6.42 | 5.82 |
| Cc1cc(-c2ccccc2Oc2ccccc2)c[nH]c1=O [Example 260, 3-methyl-5-(2-phenoxyphenyl)pyridin-2(1H)-one] | 6.67 | 6.39 | 5.63 |
| CC(=O)Nc1ccc(Oc2ccccc2)c(-c2c[nH]c(=O)c(C)c2)c1 [Example 262, N-[3-(5-methyl-6-oxo-1,6-dihydropyridin-3-yl)-4-phenoxyphenyl]acetamide] | 7.11 | 6.54 | 6.11 |
| Cc1cc(-c2cc(NS(C)(=O)=O)ccc2Oc2ccc(F)cc2F)c[nH]c1=O [Example 263, N-[4-(2,4-difluorophenoxy)-3-(5-methyl-6-oxo-1,6-dihydropyridin-3-yl)phenyl]methanesulfonamide] | 7.31 | 6.92 | 6.52 |
| CC(=O)Nc1ccc(Oc2ccc(F)cc2F)c(-c2c[nH]c(=O)c(C)c2)c1 [Example 265, N-[4-(2,4-difluorophenoxy)-3-(5-methyl-6-oxo-1,6-dihydropyridin-3-yl)phenyl]acetamide] | 6.88 | 6.76 | 5.76 |
| Cc1cc(-c2cc(NS(C)(=O)=O)ccc2OC2CCC(F)(F)CC2)c[nH]c1=O [Example 266, N-{4-[(4,4-difluorocyclohexyl)oxy]-3-(5-methyl-6-oxo-1,6-dihydropyridin-3-yl)phenyl}methanesulfonamide] | 7.23 | 6.47 | < 5.52 |
| CCS(=O)(=O)Nc1ccc(OC2CCC(F)(F)CC2)c(-c2c[nH]c(=O)c(C)c2)c1 [Example 267, N-{4-[(4,4-difluorocyclohexyl)oxy]-3-(5-methyl-6-oxo-1,6-dihydropyridin-3-yl)phenyl}ethanesulfonamide] | 7.32 | 7.00 | < 5.52 |
| CCS(=O)(=O)Nc1ccc(Oc2ccc(F)cc2F)c(-c2cn(C)c(=O)cc2C(F)(F)F)c1 [Example 268, N-{4-(2,4-difluorophenoxy)-3-[1-methyl-6-oxo-4-(trifluoromethyl)-1,6-dihydropyridin-3-yl]phenyl}ethanesulfonamide] | 6.32 | 7.02 | 6.24 |
| CCS(=O)(=O)c1ccc(OCC2CC2)c(-c2cn(C)c(=O)cc2OC)c1 [Example 275, 5-[2-(cyclopropylmethoxy)-5-(ethylsulfonyl)phenyl]-4-methoxy-1-methylpyridin-2(1H)-one] | 7.25 | 6.92 | 6.65 |
| Cn1cc(-c2ccccc2Oc2ccccc2)cc(Cl)c1=O [Example 281, 3-chloro-1-methyl-5-(2-phenoxyphenyl)pyridin-2(1H)-one] | 6.82 | 6.29 | 5.78 |

Molecules with a higher pKi [1], results first:

| pKi [1] | pKi [2] | pEC50 [3] | SMILES |
| --- | --- | --- | --- |
| 7.47 | 7.26 | 6.75 | CCS(=O)(=O)Nc1ccc(Oc2ccc(F)cc2F)c(-c2c[nH]c(=O)c(C)c2)c1 [Example 264, N-[4-(2,4-difluorophenoxy)-3-(5-methyl-6-oxo-1,6-dihydropyridin-3-yl)phenyl]ethanesulfonamide] |
| 7.54 | 8.03 | 6.89 | COc1cc(=O)n(C)cc1-c1cc(NS(C)(=O)=O)ccc1Oc1ccccc1 [Example 259, N-[3-(4-methoxy-1-methyl-6-oxo-1,6-dihydropyridin-3-yl)-4-phenoxyphenyl]methanesulfonamide] |
| 7.61 | 8.26 | 7.11 | Cn1cc(-c2cc(NS(C)(=O)=O)ccc2Oc2ccc(F)cc2F)c(-c2ccc(N3CCOCC3)cc2)cc1=O [Example 274, N-[4-(2,4-difluorophenoxy)-3-{1-methyl-4-[4-(morpholin-4-yl)phenyl]-6-oxo-1,6-dihydropyridin-3-yl]phenyl}methanesulfonamide] |
| 7.65 | 6.71 | 6.37 | Cn1cc(-c2cc(NS(C)(=O)=O)ccc2OC2CCCCC2)ccc1=O [Example 247, N-[4-(cyclohexyloxy)-3-(1-methyl-6-oxo-1,6-dihydropyridin-3-yl)phenyl]methanesulfonamide] |
| 7.76 | 7.40 | 6.71 | CCS(=O)(=O)Nc1ccc(Oc2ccc(F)cc2F)c(-c2cc(Cl)c(=O)n(C)c2)c1 [Example 283, N-[3-(5-chloro-1-methyl-6-oxo-1,6-dihydropyridin-3-yl)-4-(2,4-difluorophenoxy)phenyl]ethanesulfonamide] |
| 7.77 | 8.34 | 6.78 | Cn1cc(-c2cc(NS(C)(=O)=O)ccc2Oc2ccc(F)cc2F)c(-c2ccc(CO)cc2)cc1=O [Example 272, N-[4-(2,4-difluorophenoxy)-3-{4-[4-(hydroxymethyl)phenyl]-1-methyl-6-oxo-1,6-dihydropyridin-3-yl]phenyl}methanesulfonamide] |
| 7.97 | 8.28 | 7.32 | CCOc1cc(=O)n(C)cc1-c1cc(NS(C)(=O)=O)ccc1Oc1ccc(F)cc1F [Example 277, N-[4-(2,4-difluorophenoxy)-3-(4-ethoxy-1-methyl-6-oxo-1,6-dihydropyridin-3-yl)phenyl]methanesulfonamide] |
| 8.12 | 8.86 | 7.20 | CCS(=O)(=O)Nc1ccc(Oc2ccc(F)cc2F)c(-c2cn(C)c(=O)cc2-c2ccc(CO)cc2)c1 [Example 278, N-[4-(2,4-difluorophenoxy)-3-{4-[4-(hydroxymethyl)phenyl]-1-methyl-6-oxo-1,6-dihydropyridin-3-yl]phenyl}ethanesulfonamide] |
| 8.34 | 8.61 | 6.97 | CN1CCN(Cc2ccc(-c3cc(=O)n(C)cc3-c3cc(NS(C)(=O)=O)ccc3Oc3ccc(F)cc3F)cc2)CC1 [Example 273, N-[4-(2,4-difluorophenoxy)-3-(1-methyl-4-{4-[(4-methylpiperazin-1-yl)methyl]phenyl}-6-oxo-1,6-dihydropyridin-3-yl)phenyl]methanesulfonamide] |
| 8.42 | 8.76 | 7.42 | CCS(=O)(=O)Nc1ccc(Oc2ccc(F)cc2F)c(-c2cn(C)c(=O)cc2-c2ccc(CN(C)C)cc2)c1 [Example 280, N-[4-(2,4-difluorophenoxy)-3-(4-{4-[(dimethylamino)methyl]phenyl}-1-methyl-6-oxo-1,6-dihydropyridin-3-yl)phenyl]ethanesulfonamide] |
| 8.56 | 8.89 | 7.34 | CCS(=O)(=O)Nc1ccc(Oc2ccc(F)cc2F)c(-c2cn(C)c(=O)cc2-c2ccc(CN3CCN(C)CC3)cc2)c1 [Example 279, N-[4-(2,4-difluorophenoxy)-3-(1-methyl-4-{4-[(4-methylpiperazin-1-yl)methyl]phenyl}-6-oxo-1,6-dihydropyridin-3-yl)phenyl]ethanesulfonamide] |
